In EP0687673A1, “Oxazole derivatives as antitumoral agents” (PHARMA MAR, S.A., priority 1994, dated 1995):
In brackets after ≈: the same amount, converted by molar mass.

What was measured:
Type in all cases: cell-based
[1] = tested on: A-549 (monolayer culture of a human lung carcinoma); experiment: Antitumor screening, growth inhibition of A-549 cells (Crystal Violet staining); settings: A549, 72 h, three days of incubation at 37°C, approximate IC₅₀ vs control wells, duplicate
Procedure: (§1) Cells were maintained in logarithmic phase of growth in Eagle's Minimum Essential Medium, with Earle's Balanced Salts, with 2.0 mM L-Glutamine, with non-essential Amino Acids, without Sodium Bicarbonate (EMEM/NEAA); supplemented with 10% Fetal Calf Serum (FCS), 10⁻² M Sodium Bicarbonate and 0,1 g/1 Penicillin-G + Streptomycin Sulfate.
(§2) A simple screening procedure was carried out to determine and compare the antitumor activity of these compounds, using an adapted form of the method described by Bergeron et al., Biochem. Biophys. Res. Comm. (1984) 121 848 [Reference 6]. The antitumor cell employed was P-388 (suspension culture of a lymphoid neoplasm from DBA/2 mouse), A-549 (monolayer culture of a human lung carcinoma), HT-29 (monolayer culture of a human colon carcinoma) and MEL-28 (monolayer culture of a human melanoma).
(§3) A-549, HT-29 and MEL-28 were seeded into 16 mm wells at 2 x 10⁴ cells per well in […] of MEM 10FCS containing the indicated concentration of drug. A separate set of cultures without drug was seeded as control growth to ensure that cells remained in exponential phase of growth. All determinations were carried out in duplicate. After three days of incubation at 37°C, 10% CO₂ in a 98% humid atmosphere, the wells were stained with 0.1% Crystal Violet. An approximate IC₅₀ was determined by comparing the growth in wells with drug to the growth in control wells.

[2] = tested on: HT-29 (monolayer culture of a human colon carcinoma); experiment: Antitumor screening, growth inhibition of HT-29 cells (Crystal Violet staining); settings: 72 h, three days of incubation at 37°C, approximate IC₅₀ vs control wells, duplicate
Procedure: as §1, §2, §3

[3] = tested on: MEL-28 (monolayer culture of a human melanoma); experiment: Antitumor screening, growth inhibition of MEL-28 cells (Crystal Violet staining); settings: SK-MEL-28, 72 h, three days of incubation at 37°C, approximate IC₅₀ vs control wells, duplicate
Procedure: as §1, §2, §3

[4] = tested on: P-388 (suspension culture of a lymphoid neoplasm from DBA/2 mouse); experiment: Antitumor screening, growth inhibition of P-388 cells; settings: P388, 72 h, three days of incubation at 37°C, approximate IC₅₀ vs control wells, duplicate
Procedure: as §1, §2
P-388 cell were seeded into 16 mm wells at 1 x 10⁴ cells per well in 1 ml aliquots of MEM 5FCS containing the indicated concentration of drug. A separate set of cultures without drug was seeded as control growth to ensure that cells remained in exponential phase of growth. All determinations were carried out in duplicate. After three days of incubation at 37°C, 10% CO₂ in a 98% humid atmosphere, an approximate IC₅₀ was determined by comparing the growth in wells with drug to the growth in control wells.

IC50 [1] | IC50 [2] | IC50 [3] | IC50 [4] | SMILES
5 µg/mL (≈ 16.8 µM) | 5 µg/mL (≈ 16.8 µM) | 5 µg/mL (≈ 16.8 µM) | > 20 µg/mL | CC(O)C(O)C(O)CC(O)c1coc(Cc2cnco2)n1 (stereo not drawn)
0.2 µg/mL (≈ 0.33 µM) | 0.2 µg/mL (≈ 0.33 µM) | – | 2.5 µg/mL (≈ 4.12 µM) | CCCCCCCCCCCCCCCCCCCCC(=O)OC(CC(O)C(O)C(C)O)c1coc(Cc2cnco2)n1 (stereo not drawn) [Digonazole (6), Digonazole]
0.01 µg/mL | 0.02 µg/mL | 0.01 µg/mL | 0.2 µg/mL | CCCCCCCCCCCCCCCCCCCCC(=O)OC(CC(OC(C)=O)C(OC(C)=O)C(C)OC(C)=O)c1coc(Cc2cnco2)n1 (stereo not drawn) [Digonazole triacetate (8), Digonazole triacetate]

SMILES | IC50 [1] | IC50 [2] | IC50 [3] | IC50 [4]
CC(=O)OC(CC(OC(C)=O)C(OC(C)=O)C(C)OC(C)=O)c1coc(Cc2cnco2)n1 (stereo not drawn) [Tetraacetoxyhexyl dioxazole (10), Tetraacetoxyhexyl dioxazole] | 1 µg/mL (≈ 2.14 µM) | 0.5 µg/mL (≈ 1.07 µM) | 10 µg/mL (≈ 21.4 µM) | 10 µg/mL (≈ 21.4 µM)
